Assay results taken from patent US10681912B2, “Dispersion solution containing antibacterial ultrafine metal particles and method of producing the same” (TOYO SEIKAN GROUP HOLDINGS, LTD., priority 2013, dated 2020).

Test: SP values (solubility parameter)
Format: physicochemical
Settings: δ=(E/V)^1/2
From the text: The SP value has the same meaning as the solubility parameter, and serves as a rough indication of mixing property between the liquids. If the cohesive energy is denoted by E and the molar volume by V, then the SP value δ is given by δ=(E/V)^1/2.

SP Value: 8.7
SMILES: CC(=O)CC(C)C [Methylisobutyl ketone]
